Values quoted from earlier work as cited in patent publication US20050171207A1, “Method and composition for combination treatment of neurodegenerative disorders” (Myriad Genetics, Incorporated, priority 2003, published 2005).
Where two headings read alike, the source gives them in different places.

Legend:
mild-to-moderate AD [1] = conditions: rofecoxib at 25 mg daily; naproxen in the same trial
[2] = system: pain related chemo-somatosensory evoked potentials; conditions: 50 mg and 100 mg doses, human subjects
Aβ42 [3] = conditions: CHO cells
Aβ42 [4] = conditions: transgenic mouse model
mild-to-moderate AD [5] = conditions: in vivo
[6] = system: Alzheimer's disease excitotoxic model; conditions: in vivo Alzheimer's disease excitotoxic model system

In the case of `COc1ccc2cc([C@H](C)C(=O)O)ccc2c1` [Naproxen], the “efficacy for treating AD” value (mild-to-moderate AD [1]) is given as “failed to show efficacy”.

For `C[C@@H](C(=O)O)c1ccc(-c2ccccc2)c(F)c1` [R-flurbiprofen], the analgesic effect [2] is listed as “produced an analgesic effect”, the “inhibition of COX activity” value (COX) is listed as “negligibly inhibits COX activity” and the Aβ42 lowering (Aβ42 [3]) is listed as “lower Aβ42”. For the same compound, the Aβ42 lowering (Aβ42 [4]) was “lower Aβ42”.

In the case of `CC12CC3CC(C)(C1)CC(N)(C3)C2` [memantine], the “efficacy in treating mild-to-moderate AD” value (mild-to-moderate AD [5]) is listed as “showed efficacy”.

For `CS(=O)(=O)c1ccc(C2=C(c3ccccc3)C(=O)OC2)cc1` [rofecoxib], the neuroprotection [6] is given as “provides neuroprotection” and the “efficacy for treating AD” value (mild-to-moderate AD [1]) is given as “failed to show efficacy”.
